Source: PMC10233829 (ACS Omega, 2023)
Converted amounts (≈) assume the structure as drawn. Like-named read-outs stand apart in the source and are kept apart here.

How the values were obtained:
[1] = tested on: P. aeruginosa 659; assay: MIC, twofold microdilution, clinical strain; format: cell-based; conditions: Pseudomonas aeruginosa, 18 h
[2] = molecular target: T1, S. aureus topoisomerase IV (Staphylococcus aureus, UniProt P0C1S7+P0C1U9); assay: Topoisomerase IV decatenation assay; format: biochemical; conditions: decatenation of kinetoplast DNA; read-out: IC50 S. aureus topoisomerase IV (converted)
T1 construct: purchased Inspiralis, Norwich, UK
T1 sequence (P0C1U9 whole entry): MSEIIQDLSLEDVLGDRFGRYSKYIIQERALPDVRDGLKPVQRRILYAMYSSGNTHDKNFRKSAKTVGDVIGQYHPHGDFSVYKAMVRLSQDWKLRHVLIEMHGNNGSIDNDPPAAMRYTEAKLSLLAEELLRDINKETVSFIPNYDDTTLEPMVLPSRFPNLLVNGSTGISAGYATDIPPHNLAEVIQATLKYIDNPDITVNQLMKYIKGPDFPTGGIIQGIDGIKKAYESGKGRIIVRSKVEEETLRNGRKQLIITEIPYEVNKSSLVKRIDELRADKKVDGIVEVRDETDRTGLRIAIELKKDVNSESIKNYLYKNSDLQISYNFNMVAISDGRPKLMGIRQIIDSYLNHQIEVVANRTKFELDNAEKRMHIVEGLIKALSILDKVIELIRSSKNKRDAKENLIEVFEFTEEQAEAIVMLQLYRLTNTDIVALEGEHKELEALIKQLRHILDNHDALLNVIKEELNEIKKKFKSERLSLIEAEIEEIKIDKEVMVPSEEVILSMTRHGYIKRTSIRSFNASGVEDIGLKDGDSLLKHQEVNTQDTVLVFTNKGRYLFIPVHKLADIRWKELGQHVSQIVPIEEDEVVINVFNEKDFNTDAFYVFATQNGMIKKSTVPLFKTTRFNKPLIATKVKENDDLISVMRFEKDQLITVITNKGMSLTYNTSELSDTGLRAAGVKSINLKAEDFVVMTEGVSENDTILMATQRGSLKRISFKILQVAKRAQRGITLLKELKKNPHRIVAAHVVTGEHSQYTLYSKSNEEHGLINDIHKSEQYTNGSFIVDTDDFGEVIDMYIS
T1 sequence (P0C1S7 whole entry): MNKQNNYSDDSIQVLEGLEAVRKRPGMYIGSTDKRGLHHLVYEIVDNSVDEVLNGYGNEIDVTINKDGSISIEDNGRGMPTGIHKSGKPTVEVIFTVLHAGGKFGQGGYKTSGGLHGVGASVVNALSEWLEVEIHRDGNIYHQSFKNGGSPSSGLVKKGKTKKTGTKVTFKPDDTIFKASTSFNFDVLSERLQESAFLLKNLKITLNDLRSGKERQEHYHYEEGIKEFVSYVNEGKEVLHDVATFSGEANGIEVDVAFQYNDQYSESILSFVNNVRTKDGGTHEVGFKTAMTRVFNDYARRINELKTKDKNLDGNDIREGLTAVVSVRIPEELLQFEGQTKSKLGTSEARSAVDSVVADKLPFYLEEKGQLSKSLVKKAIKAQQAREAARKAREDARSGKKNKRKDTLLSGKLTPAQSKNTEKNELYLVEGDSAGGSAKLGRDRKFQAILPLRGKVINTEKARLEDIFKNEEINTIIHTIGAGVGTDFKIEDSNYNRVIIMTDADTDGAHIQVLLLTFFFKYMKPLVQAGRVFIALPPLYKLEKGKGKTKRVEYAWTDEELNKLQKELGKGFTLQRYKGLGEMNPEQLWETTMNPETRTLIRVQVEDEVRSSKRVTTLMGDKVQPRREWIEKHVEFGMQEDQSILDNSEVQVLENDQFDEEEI

[3] = tested on: clinical bacterial strains; assay: MIC, clinical isolates as groups of strains; format: cell-based
[4] = tested on: E. coli 520; assay: MIC, twofold microdilution, clinical strain; format: cell-based; conditions: Escherichia coli, 18 h
[5] = tested on: S. epidermidis KR4243/1; assay: MIC, twofold microdilution, clinical strain; format: cell-based; conditions: Staphylococcus epidermidis, 18 h
[6] = MTT assay, cytotoxic activity; format: cell-based; conditions: human, HaCaT cells (immortal keratinocytes); MTT, 72 h, normal cell line; read-out: IC50 HaCaT
How it was run: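 MTT assay on cells grown at 37 °C/5% CO2. Viability is expressed as relative MTT reduction: test absorbance divided by untreated-control absorbance, ×100%.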

[7] = tested on: E. coli 600; assay: MIC, twofold microdilution, clinical strain; format: cell-based, Escherichia coli; conditions: Escherichia coli, 600, 18 h
[8] = tested on: S. epidermidis ATCC 35984; assay: MIC, twofold microdilution, standard strain; format: cell-based; conditions: Staphylococcus epidermidis, ATCC35984, 18 h
[9] = tested on: S. aureus T5595; assay: MIC, twofold microdilution, clinical strain; format: cell-based, Staphylococcus aureus; conditions: Staphylococcus aureus, T5595, 18 h
[10] = tested on: M. tuberculosis Spec 210; assay: microbe, parasite or virus in culture; format: cell-based, Mycobacterium tuberculosis; conditions: M. tuberculosis Spec. 210
[11] = tested on: E. coli ATCC 25922; assay: MIC, twofold microdilution, standard strain; format: cell-based, Escherichia coli; conditions: Escherichia coli, ATCC25922; standard strain, 18 h
[12] = tested on: S. epidermidis 4341; assay: MIC, twofold microdilution, clinical strain; format: cell-based; conditions: Staphylococcus epidermidis, 18 h
[13] = tested on: P. aeruginosa 37; assay: MIC, twofold microdilution, clinical strain; format: cell-based; conditions: Pseudomonas aeruginosa, 18 h
[14] = tested on: Staphylococci (standard strains); assay: MIC, standard Gram-positive strains as a panel; format: cell-based, S. aureus, S. epidermidis; conditions: for MIC: read-out: MIC toward standard Staphylococci (range over strains)
[15] = tested on: P. aeruginosa ATCC 15442 and E. coli ATCC 25922; assay: MIC, standard Gram-negative rods as a panel; format: cell-based; conditions: P. aeruginosa ATCC 15442, E. coli ATCC 25922; read-out: MIC against standard Gram-negative rods (range over strains)
[16] = tested on: M. tuberculosis H37Rv; assay: Tuberculostatic activity, Microplate Alamar Blue Assay (MIC); format: cell-based, Mycobacterium tuberculosis; conditions: Mycobacterium tuberculosis, H37RV; MABA; read-out: MIC M. tuberculosis H37Rv
[17] = tested on: K. pneumoniae 28; assay: MIC, twofold microdilution, clinical strain; format: cell-based; conditions: Klebsiella pneumoniae, 18 h
[18] = tested on: S. aureus ATCC 29213; assay: MIC, twofold microdilution, standard strain; format: cell-based; conditions: Staphylococcus aureus, ATCC29213, 18 h
[19] = molecular target: S. aureus DNA gyrase (Staphylococcus aureus, UniProt P0A0K8+P20831); assay: biochemical; conditions: supercoiling of relaxed pBR322
Chain of S. aureus DNA gyrase (P0A0K8 whole entry): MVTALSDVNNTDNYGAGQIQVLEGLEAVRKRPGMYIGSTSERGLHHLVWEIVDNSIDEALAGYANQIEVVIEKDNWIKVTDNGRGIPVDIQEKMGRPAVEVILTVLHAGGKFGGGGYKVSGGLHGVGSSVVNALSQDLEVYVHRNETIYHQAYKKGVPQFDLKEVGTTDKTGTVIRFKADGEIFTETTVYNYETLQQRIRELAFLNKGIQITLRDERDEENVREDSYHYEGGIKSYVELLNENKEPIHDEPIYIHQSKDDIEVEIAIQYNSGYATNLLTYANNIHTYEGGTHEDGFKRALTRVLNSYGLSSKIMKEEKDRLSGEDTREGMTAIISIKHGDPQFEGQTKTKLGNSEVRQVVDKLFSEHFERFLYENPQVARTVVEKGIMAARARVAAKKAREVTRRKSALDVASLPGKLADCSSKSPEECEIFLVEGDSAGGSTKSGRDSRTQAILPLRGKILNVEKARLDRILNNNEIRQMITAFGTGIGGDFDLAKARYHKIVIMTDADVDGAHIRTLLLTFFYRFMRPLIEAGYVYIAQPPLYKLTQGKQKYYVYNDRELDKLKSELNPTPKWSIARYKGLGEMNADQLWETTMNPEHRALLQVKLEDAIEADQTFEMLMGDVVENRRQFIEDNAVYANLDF
Chain of S. aureus DNA gyrase (P20831 whole entry): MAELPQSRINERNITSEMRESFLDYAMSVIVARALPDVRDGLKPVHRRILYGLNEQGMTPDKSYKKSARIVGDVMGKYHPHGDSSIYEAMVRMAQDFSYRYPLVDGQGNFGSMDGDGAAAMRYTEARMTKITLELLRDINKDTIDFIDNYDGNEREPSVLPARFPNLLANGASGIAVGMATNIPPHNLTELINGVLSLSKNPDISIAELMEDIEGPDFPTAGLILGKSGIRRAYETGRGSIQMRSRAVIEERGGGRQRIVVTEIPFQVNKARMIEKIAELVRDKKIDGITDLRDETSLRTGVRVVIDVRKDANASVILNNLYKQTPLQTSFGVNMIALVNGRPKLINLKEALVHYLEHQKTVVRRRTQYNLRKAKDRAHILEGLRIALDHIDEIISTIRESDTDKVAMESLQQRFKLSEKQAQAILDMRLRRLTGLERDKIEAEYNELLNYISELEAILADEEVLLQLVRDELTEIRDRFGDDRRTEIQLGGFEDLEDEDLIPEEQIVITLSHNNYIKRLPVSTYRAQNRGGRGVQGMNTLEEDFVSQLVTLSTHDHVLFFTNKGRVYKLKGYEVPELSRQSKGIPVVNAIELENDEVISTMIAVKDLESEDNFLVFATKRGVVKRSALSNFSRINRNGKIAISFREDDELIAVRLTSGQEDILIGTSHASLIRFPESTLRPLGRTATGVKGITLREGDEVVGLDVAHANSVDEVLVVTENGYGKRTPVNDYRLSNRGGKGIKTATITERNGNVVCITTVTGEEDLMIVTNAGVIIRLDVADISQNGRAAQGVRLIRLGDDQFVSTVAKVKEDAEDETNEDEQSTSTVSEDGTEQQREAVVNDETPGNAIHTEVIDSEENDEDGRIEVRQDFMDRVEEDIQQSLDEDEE
Protocol: The enzymatic assay was carried using commercial topoisomerases type II as previously described by Alt et al.[55] with some modifications.
Briefly, 1 U of the enzyme (gyrase or topo IV, Inspiralis. Norwich, UK) isolated from S. aureus converts […] of relaxed pBR322 DNA to the supercoiled form (gyrase) or decatenates 200 ng of kinetoplast DNA (topo IV). […] The reactions were terminated by adding an equal volume of STEB buffer (40% sucrose, 100 mM Tris–HCl pH 8, 10 mM EDTA, and 0.5 mg/mL bromophenol blue), followed by extraction with 1 volume of chloroform/isoamyl alcohol (24:1). The samples were vortexed and centrifuged, and 20 μL of the aqueous phase of each sample was loaded onto a 1% agarose gel and left for 30 min prior to electrophoresis to allow diffusion of salt. […] Gels were stained with ethidium bromide and visualized under UV light in a transilluminator (ChemiDoc MP, Bio Rad).

[20] = tested on: S. pasteuri KR 4358; assay: MIC, twofold microdilution, clinical strain; format: cell-based; conditions: Staphylococcus pasteuri, KR4358, 18 h
[21] = tested on: K. pneumoniae 510; assay: MIC, twofold microdilution, clinical strain; format: cell-based, Klebsiella pneumoniae; conditions: Klebsiella pneumoniae, 510; clinical strain, 18 h
[22] = tested on: S. aureus ATCC 6538; assay: MIC, twofold microdilution, standard strain; format: cell-based, Staphylococcus aureus; conditions: Staphylococcus aureus, ATCC6538; standard strain, 18 h
[23] = tested on: E. cloacae 8; assay: MIC, twofold microdilution, clinical strain; format: cell-based, Escherichia cloacae; conditions: Enterobacter cloacae, 8; clinical strain, 18 h
[24] = tested on: PC3 cells; assay: MTT assay, cytotoxic activity; format: cell-based, human; conditions: Homo sapiens, PC-3, 72 h, MTT, 72 h
How it was run: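 PC3 cells were grown at 37 °C/5% CO2 and exposed to test compounds. Viability came from MTT reduction, as test absorbance over untreated-control absorbance × 100%.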

[25] = tested on: S. aureus 5595; assay: MIC, twofold microdilution, clinical strain; format: cell-based; conditions: Staphylococcus aureus, 18 h
[26] = tested on: S. aureus ATCC 25923; assay: MIC, twofold microdilution, standard strain; format: cell-based; conditions: Staphylococcus aureus, ATCC25923, 18 h
[27] = tested on: S. aureus NCTC 4163; assay: MIC, twofold microdilution, standard strain; format: cell-based; conditions: Staphylococcus aureus, NCTC4163, 18 h
[28] = tested on: S. aureus T5591; assay: MIC, twofold microdilution, clinical strain; format: cell-based, Staphylococcus aureus; conditions: Staphylococcus aureus, T5591, 18 h
[29] = tested on: E. coli 951; assay: MIC, twofold microdilution, clinical strain; format: cell-based; conditions: Escherichia coli, 18 h
[30] = tested on: S. epidermidis 5253; assay: MIC, twofold microdilution, clinical strain; format: cell-based, Staphylococcus epidermidis; conditions: for MIC: Staphylococcus epidermidis, 5253, 18 h
[31] = tested on: M. tuberculosis Spec. 192; assay: Tuberculostatic activity, Microplate Alamar Blue Assay (MIC); format: cell-based; conditions: Mycobacterium tuberculosis, MABA, read-out: MIC M. tuberculosis Spec. 192 (sensitive to tuberculostatics)
[32] = tested on: S. aureus 180; assay: MIC, twofold microdilution, clinical strain; format: cell-based; conditions: Staphylococcus aureus, 18 h
[33] = tested on: P. aeruginosa ATCC 15442; assay: MIC, twofold microdilution, standard strain; format: cell-based, Pseudomonas aeruginosa; conditions: Pseudomonas aeruginosa, ATCC15442; standard strain, 18 h
[34] = tested on: S. epidermidis ATCC 12228; assay: MIC, twofold microdilution, standard strain; format: cell-based; conditions: Staphylococcus epidermidis, ATCC12228, 18 h
[35] = standard Gram-positive strains of Table 1

| SMILES | MIC [1] | MIC [4] | MIC [5] | IC50 at 72 h [6] | MIC [7] | MIC [8] | MIC [9] | fold more effective than the reference tuberculostatics [10] | MIC [11] | MIC [12] | MIC [13] | MIC [16] | MIC [17] | MIC [18] | MIC [20] | MIC [21] | MIC [22] | MIC [23] | IC50 [24] | MIC [25] | further results |
| --- | --- | --- | --- | --- | --- | --- | --- | --- | --- | --- | --- | --- | --- | --- | --- | --- | --- | --- | --- | --- | --- |
| C=CC(=O)N1CCN(c2cc3c(cc2F)c(=O)c(C(=O)O)cn3C2CC2)CC1 [Compound 1, 7-(4-Acryloyl-piperazin-1-yl)-1-cyclopropyl-6-fluoro-4-oxo-1,4-dihydro-quinoline-3-carboxylic Acid] | > 25.6 µg/mL | 1.6 µg/mL (≈ 4.15 µM) | 0.4 µg/mL (≈ 1.04 µM) | 100 ± 1.2 µM | > 25.6 µg/mL | 0.05 µg/mL (≈ 0.13 µM) | 0.4 µg/mL (≈ 1.04 µM) | 8–32 fold | 0.1 µg/mL (≈ 0.259 µM) | > 25.6 µg/mL | > 25.6 µg/mL | 4 µg/mL (≈ 10.4 µM) | > 25.6 µg/mL | 0.1 µg/mL (≈ 0.259 µM) | 0.4 µg/mL (≈ 1.04 µM) | > 25.6 µg/mL | 0.05 µg/mL (≈ 0.13 µM) | 3.2 µg/mL (≈ 8.3 µM) | 68.7 ± 3.4 µM | 0.8 µg/mL (≈ 2.08 µM) | IC50 [2]: 25.9 µM; share of CP inhibitory activity ([3]; S. aureus 180 and 5595): 62.5%; times higher potency than CP ([14]; S. aureus NCTC 4163 and ATCC 25923): 5–10 times; MIC [14]: 0.05 to 0.4 µg/mL (≈ 0.13 to 1.04 µM); fold more active than CP toward standard Staphylococci [14, 35]: 1.25–10 fold; MIC [15]: ≤ 1 µg/mL; IC50 [19]: 23.9 µM; MIC [26]: 0.05 µg/mL (≈ 0.13 µM); MIC [27]: 0.05 µg/mL (≈ 0.13 µM); MIC [28]: 0.8 µg/mL (≈ 2.08 µM); MIC [29]: > 25.6 µg/mL; MIC [30]: > 25.6 µg/mL; MIC [31]: 4 µg/mL (≈ 10.4 µM); MIC [32]: 0.8 µg/mL (≈ 2.08 µM); MIC [33]: 3.2 µg/mL (≈ 8.3 µM); MIC [34]: 0.1 µg/mL (≈ 0.259 µM) |
| O=C(O)c1cn(C2CC2)c2cc(N3CCN(C(=O)CCCl)CC3)c(F)cc2c1=O [Compound 4, 7-[4-(3-Chloropropionyl)-piperazin-1-yl]-1-cyclopropyl-6-fluoro-4-oxo-1,4-dihydro-quinoline-3-carboxylic Acid] | > 25.6 µg/mL | 0.8 µg/mL (≈ 1.9 µM) | 0.2 µg/mL (≈ 0.474 µM) | > 100 µM | 0.8 µg/mL (≈ 1.9 µM) | 0.2 µg/mL (≈ 0.474 µM) | 0.4 µg/mL (≈ 0.948 µM) | 8–32 fold | 3.2 µg/mL (≈ 7.59 µM) | 6.4 µg/mL (≈ 15.2 µM) | > 25.6 µg/mL | 2 µg/mL (≈ 4.74 µM) | > 25.6 µg/mL | 0.2 µg/mL (≈ 0.474 µM) | 0.2 µg/mL (≈ 0.474 µM) | > 25.6 µg/mL | 0.2 µg/mL (≈ 0.474 µM) | 0.8 µg/mL (≈ 1.9 µM) | 51.6 ± 8.1 µM | 0.2 µg/mL (≈ 0.474 µM) | fold more effective than CP ([3]; S. aureus 180 and 5595): 2.5 fold; share of the reference (CP) activity ([3]; S. aureus T5595 and T5591): 62.5%; MIC ([3]; clinical strains, read-out: MIC against selected E. coli and E. cloacae strains): 0.1 to 0.8 µg/mL (≈ 0.237 to 1.9 µM); MIC [14, 35]: 0.1 to 0.8 µg/mL (≈ 0.237 to 1.9 µM); MIC [26]: 0.4 µg/mL (≈ 0.948 µM); MIC [27]: 0.2 µg/mL (≈ 0.474 µM); MIC [28]: 0.4 µg/mL (≈ 0.948 µM); MIC [29]: 25.6 µg/mL (≈ 60.7 µM); MIC S. epidermidis 5253 ([30]; 18 h): 25.6 µg/mL (≈ 60.7 µM); MIC [30]: 12.8 to 25.6 µg/mL (≈ 30.3 to 60.7 µM); MIC [31]: 1 µg/mL (≈ 2.37 µM); MIC [32]: 0.2 µg/mL (≈ 0.474 µM); MIC [33]: 12.8 µg/mL (≈ 30.3 µM); MIC [34]: 0.2 µg/mL (≈ 0.474 µM) |
